Measured values published in patent US20040087798A1, “Novel amide compounds” (priority 2000, published 2004).

melting point	Structure (SMILES)
213 to 214 °C	N=C(Nc1cccc(NC(=O)Cc2ccccc2)c1)c1ccccc1 [Example 1, N-[3-(iminobenzylamino)phenyl]phenylacetamide]
115 to 117 °C	N=C(Nc1cccc(NC(=O)C=Cc2ccccc2)c1)c1ccccc1 [Example 2, N-[3-(iminobenzylamino)phenyl]cinnamamide]
214 to 216 °C	Cc1ncccc1Oc1ccc(NC(=O)/C=C/c2ccccc2C(F)(F)F)cn1 [Example 9, (2E)-N-[6-(2-methyl-3-pyridyloxy)pyridin-3-yl]-3-[2-(trifluoromethyl)phenyl]-2-propenamide]
219 to 221 °C	COc1ccccc1/C=C/C(=O)Nc1cccc(NC(=N)c2ccccc2)c1 [Example 14, (2E)-N-[3-(iminobenzylamino)phenyl]-3-(2-methoxyphenyl)-2-propenamide]
215 to 216 °C	N=C(Nc1ccc(F)c(NC(=O)/C=C/c2ccccc2Cl)c1)c1cccs1 [Example 16, (2E)-N-[2-fluoro-5-[[imino(2-thienyl)methyl]amino]phenyl]-3-(2-chlorophenyl)-2 propenamide]
189 to 191 °C	N=C(Nc1ccc(F)c(NC(=O)/C=C/c2ccccc2Cl)c1)c1ccccc1 [Example 17, (2E)-N-[2-fluoro-5-(iminobenzylamino)phenyl]-3-(2-chlorophenyl)-2-propenamide]
229 to 230 °C	COc1ccc(Cl)cc1C(=N)Nc1ccc(F)c(NC(=O)/C=C/c2ccccc2Cl)c1 [Example 18, (2E)-N-[5-[[(5-chloro-2-methoxyphenyl)(imino)methyl]amino]-2-fluorophenyl]-3-(2-chlorophenyl)-2-propenamide]
238 to 239 °C	COc1ccc(F)cc1C(=N)Nc1cc(Cl)cc(NC(=O)/C=C/c2ccccc2Cl)c1 [Example 23, (2E)-N-[3-chloro-5-[[(5-fluoro-2-methoxyphenyl)(imino)methyl]amino]phenyl]-3-(2-chlorophenyl)-2-propenamide]
226 to 228 °C	COc1ccc(Cl)cc1C(=N)Nc1cc(Cl)cc(NC(=O)/C=C/c2ccccc2Cl)c1 [Example 24, (2E)-N-[3-chloro-5-[[(5-chloro-2-methoxyphenyl)(imino)methyl]amino]phenyl]-3-(2-chlorophenyl)-2-propenamide]
112 to 118 °C	CC(C)c1ccc(NC(=N)c2cccc(NC(=O)C=Cc3ccccc3Cl)c2)cc1 [Example 27, N-[3-[imino(4-isopropylanilino)methyl]phenyl}-2-chlorocinnamamide]
213 to 214 °C	COc1ccc(F)cc1C(=N)Nc1cc(Cl)cc(NC(=O)/C=C/c2ccccc2C(F)(F)F)c1 [Example 30, (2E)-N-[3-chloro-5-[[(5-fluoro-2-methoxyphenyl)(imino)methyl]amino]phenyl]-3-[2-(trifluoromethyl)phenyl]-2-propenamide]
105 to 115 °C	N=C(Nc1cc(Cl)cc(NC(=O)/C=C/c2ccccc2Cl)c1)c1ccccc1 [Example 31, (2E)-N-[3-chloro-5-(iminobenzylamino)phenyl]-3-(2-chlorophenyl)-2-propenamide]
206 to 208 °C	N=C(Nc1cc(NC(=O)/C=C/c2ccccc2Cl)cc(C(F)(F)F)c1)c1cccs1 [Example 32, (2E)-N-[3-trifluoromethyl-5-[[imino(2-thienyl)methyl]amino]phenyl]-3-(2-chlorophenyl)-2-propenamide]
123 to 124 °C	N=C(Nc1cc(Cl)cc(NC(=O)/C=C/c2ccccc2Cl)c1)c1cccs1 [Example 33, (2E)-N-[3-chloro-5-[[imino(2-thienyl)methyl]amino]phenyl]-3-(2-chlorophenyl)-2-propenamide]
178 to 179 °C	N=C(Nc1cc(Cl)cc(NC(=O)/C=C/c2ccccc2C(F)(F)F)c1)c1cccs1 [Example 34, (2E)-N-[3-chloro-5-[[imino(2-thienyl)methyl]amino]phenyl]-3-[2-(trifluoromethyl)phenyl]-2-propenamide]
137 to 139 °C	N=C(Nc1cc(Cl)cc(NC(=O)/C=C/c2ccccc2C(F)(F)F)c1)c1ccccc1 [Example 35, (2E)-N-[3-chloro-5-(iminobenzylamino)phenyl]-3-[2-(trifluoromethyl)phenyl]-2-propenamide]
181 to 182 °C	N#Cc1cc(NC(=N)c2ccccc2)cc(NC(=O)/C=C/c2ccccc2C(F)(F)F)c1 [Example 36, (2E)-N-[3-cyano-5-(iminobenzylamino)phenyl]-3-[2-(trifluoromethyl)phenyl]-2-propenamide]
147 to 149 °C	Cc1ccc(/C=C/C(=O)Nc2cccc(NC(=N)c3ccccc3)c2)cc1 [Example 38, (2E)-N-[3 (iminobenzylamino)phenyl]-3-(4-methylphenyl)-2-propenamide]
179 to 180 °C	Cc1cccc(/C=C/C(=O)Nc2cccc(NC(=N)c3ccccc3)c2)c1 [Example 39, (2E)-N-[3-(iminobenzylamino)phenyl]-3-(3-methylphenyl)-2-propenamide]
109 to 114 °C	Cc1ccccc1/C=C/C(=O)Nc1cccc(NC(=N)c2ccccc2)c1 [Example 40, (2E)-N-[3 (iminobenzylamino)phenyl]-3-(2-methylphenyl)-2-propenamide]
188 to 191 °C	Cn1c(NCc2cccc(NC(=O)C=Cc3ccccc3Cl)c2)nc2ccccc21 [Example 43, N-[3-[[(1-methyl-1H-benzimidazol-2-yl)amino]methyl]phenyl]-3-(2-chlorophenyl)-2-propenamide]
164 to 165 °C	O=C(C=Cc1ccccc1Cl)Nc1ccc(NCc2ccccn2)nc1 [Example 44, N-[6-[(2-pyridylmethyl)amino]-3-pyridyl]-3-(2-chlorophenyl)-2-propenamide]
187 to 189 °C	Cc1ncccc1Oc1ccc(NC(=O)C=Cc2ccccc2Cl)cn1 [Example 45, N-[6-[(2-methyl-3-pyridyl)oxy]-3-pyridyl]-3-(2-chlorophenyl)-2-propenamide]
82 to 84 °C	N=C(Nc1cccc(NC(=O)/C=C/c2ccccc2C(F)(F)F)c1)c1ccccc1 [Example 46, (2E)-N-[3-(iminobenzylamino)phenyl]-3-[2-(trifluoromethyl)phenyl]-2-propenamide]
109 to 110 °C	N=C(Nc1cccc(NC(=O)/C=C/c2ccc(Cl)cc2)c1)c1ccccc1 [Example 47, (2E)-N-[3-(iminobenzylamino)phenyl]-3-(4-chlorophenyl)-2-propenamide]
148 to 149 °C	COc1cccc(/C=C/C(=O)Nc2cccc(NC(=N)c3ccccc3)c2)c1 [Example 48, (2E)-N-[3(iminobenzylamino)phenyl]-3-(3-methoxyphenyl)-2-propenamide]
170 to 171 °C	O=C(C=Cc1ccccc1Cl)Nc1cccc(CNc2ccc3ccccc3n2)c1 [Example 50, N-[3-[(2-quinolylamino)methyl]phenyl]-3-(2-chlorophenyl)-2-propenamide]
225 to 227 °C	CN(C)c1ccc(C(=N)Nc2cccc(NC(=O)C=Cc3ccccc3)c2)cc1 [Example 51, N-[3-[[[4-(dimethylamino)phenyl](imino)methyl]amino]phenyl]cinnamamide]
260 to 262 °C	N=C(Nc1cccc(NC(=O)/C=C/c2cccc(Cl)c2)c1)c1ccccc1 [Example 53, (2E)-N-[3-(iminobenzylamino)phenyl]-3-(3-chlorophenyl)-2-propenamide]
